Test results: patent US20200038397A1, “PHARMACOTHERAPY FOR PREVENTING OR TREATING GLAUCOMA” (KOWA COMPANY, LTD., priority 2014, published 2020)

Tested on: white rabbit
Test: intraocular pressure-lowering effect of single and combined eye drop administration in white rabbits
Format: in vivo
Conditions: for IOP: intraocular pressure, 0 h: initial intraocular pressure immediately before application; for IOP: intraocular pressure, 0 h / IOP: intraocular pressure, 0.5 h / IOP: intraocular pressure, 1 h: n = 10, Compound 1 0.4% 50 μL, brimonidine 0.1% 50 μL; for IOP: intraocular pressure, 0.5 h: 0.5 h after application; for IOP: intraocular pressure, 1 h: 1 h after application
Description: To investigate the usefulness of the combination of (S)-(−)-1-(4-fluoro-5-isoquinolinesulfonyl)-2-methyl-1,4-homopiperazine (Compound 1) and an α2 agonist, intraocular pressure-lowering effect was compared between the case where each drug was singly administered to an experimental animal and the case where the drugs were administered to an experimental animal in combination.
(S)-(−)-1-(4-fluoro-5-isoquinolinesulfonyl)-2-methyl-1,4-homopiperazine hydrochloride dihydrate was dissolved in physiological saline, and the solution was then neutralized (pH 6.0) with addition of sodium dihydrogen phosphate and sodium hydroxide to prepare a solution of Compound 1 at a desired concentration.
Commercially available brimonidine (Senju Pharmaceutical Co., Ltd., AIPHAGAN eye drop 0.1%) was directly used.
The intraocular pressure-lowering effect of combined administration of Compound 1 and brimonidine was investigated. As controls, the intraocular pressure-lowering effect of single administration of Compound 1 and that of single administration of brimonidine were further investigated.
Solution of Compound 1: 0.4% solution (amount of application: 50 μL)
Brimonidine: 0.1% eye drop (amount of application: 50 μL)
Experimental animal: white rabbit (sex: male, 10 rabbits per group)
1) One drop of […] oxybuprocaine hydrochloride eye drop (trade name: Benoxil 0.4% solution) was applied to both eyes of an experimental animal for local anesthesia (data were acquired only from the eye to which the eye drop was applied).
2) The intraocular pressure was measured immediately before administration of a solution of a test compound, and the measurement was used as the initial intraocular pressure.
3) The solution of Compound 1 was applied to one eye of the experimental animal, and subsequently the solution of brimonidine was applied to the same eye.
4) One drop of the 0.4% oxybuprocaine hydrochloride eye drop was applied to each eye for local anesthesia 0.5 hours, 1 hour, 2 hours, 3 hours, 4 hours, and 5 hours after the application of the agents, and the intraocular pressure was then measured.
Compound 1 was singly applied, and a test was performed at the same measurement times as in the combined administration test.
A test was performed using the same method as in the single administration test except that the test solution in the single administration of Compound 1 was replaced with that of brimonidine.
The intraocular pressure was represented as an amount of change from the initial intraocular pressure. For statistical processing, Stat Preclinica Client 1.1 with parametric Tukey's multiple comparison was used.

| Structure (SMILES) | IOP: intraocular pressure, 0 h | IOP: intraocular pressure, 0.5 h | intraocular pressure-lowering action 0.5 hours after application of an eye drop (in words) (0.5 hours after application) | IOP: intraocular pressure, 1 h |
| --- | --- | --- | --- | --- |
| Brc1c(NC2=NCCN2)ccc2nccnc12 [Brimonidine, brimonidine] | 24.2 ± 1.3 mmHg | 25.2 ± 0.9 mmHg | no intraocular pressure-lowering action | 19.4 ± 1.2 mmHg |
| C[C@H]1CNCCCN1S(=O)(=O)c1cccc2cncc(F)c12 [Compound 1, (S)-(−)-1-(4-fluoro-5-isoquinolinesulfonyl)-2-methyl-1,4-homopiperazine] | 26.5 ± 0.8 mmHg | 20.5 ± 1.2 mmHg |  | 15.9 ± 1.0 mmHg |
